Results published in PMC10485003, “Antibiotic hyper-resistance in a class I aminoacyl-tRNA synthetase with altered active site signature motif” (Nature Communications, 2023).
Where “and” joins values, the source holds several entries; their conditions need not be identical. Equal values may be shown once. Read-outs that look alike come from different tables or passages of the source.

What was measured:
wt-ALHH DrIleRS2 = biological target: T1, wt-ALHH DrIleRS2 (Deinococcus radiodurans, UniProt Q9RUP8); assay: ATP-PPi exchange assay, mupirocin inhibition of amino acid activation; assay type: biochemical
T1 construct: hexa-histidine tag (pET28b(+)) (N); made in house; host or cells: E. coli BL21(DE3)
Description: L-Ile and ATP concentrations ranged from 1/10 KM to 10 KM values. When measuring the KI towards one of the substrates, the other was held in saturation (concentrations at least 10 KM). The aliquots of the reaction mixture (1–2.5 μl) were quenched in 2 volumes of 500 mM NaOAc pH = 4.5, 0.1% SDS, and formed ^32P-ATP was separated from the remaining ^32P-PPi by thin-layer chromatography on Polygram CEL 300 PEI UV254 TLC plates (Macherey-Nagel, cat: 801063) using 750 mM KH2PO4 pH=3.5, 4 M urea buffer. Visualization and quantification of the signals was performed using a Typhoon Phosphoimager 5 (General Electric) and accompanying ImageQuant™ TL software (SV: 10.2). The kinetic constants were determined using a global fit option of the competitive inhibition model of GraphPad Prism 6 software (SV: 6.01). All experiments were performed in triplicates. The kcat was determined by dividing the maximal velocity, VM, with the used enzyme concentration. […]
variable substrate (ATP or Ile) was varied in the range of 0.1 KM to 10 KM. The other substrate (Ile or ATP) was kept in excess at 5 to 10 KM. Data were globally fitted to the competitive inhibition model using GraphPad prism 6.01 for Windows software. The values represent the average value ± SD of three independent experiments. Source data are provided as a Source Data file.

wt-HVGH PmIleRS2 = settings: cited from earlier work
wt-HMGH PmIleRS1 = settings: amino acid activation step; ATP/PPi exchange assay; Ile varied; slow tight binding inhibitor; read-out: KI (MUP)Ile; cited from earlier work
ScIleRS2 = settings: aminoacylation, with tRNA; cited from earlier work
IleRS1 = biological target: IleRS1; design: method as in PMID 6258580, PMID 9822630; settings: type 1 proteins strongly inhibited; cited from earlier work

T1 sequence (Q9RUP8 whole entry): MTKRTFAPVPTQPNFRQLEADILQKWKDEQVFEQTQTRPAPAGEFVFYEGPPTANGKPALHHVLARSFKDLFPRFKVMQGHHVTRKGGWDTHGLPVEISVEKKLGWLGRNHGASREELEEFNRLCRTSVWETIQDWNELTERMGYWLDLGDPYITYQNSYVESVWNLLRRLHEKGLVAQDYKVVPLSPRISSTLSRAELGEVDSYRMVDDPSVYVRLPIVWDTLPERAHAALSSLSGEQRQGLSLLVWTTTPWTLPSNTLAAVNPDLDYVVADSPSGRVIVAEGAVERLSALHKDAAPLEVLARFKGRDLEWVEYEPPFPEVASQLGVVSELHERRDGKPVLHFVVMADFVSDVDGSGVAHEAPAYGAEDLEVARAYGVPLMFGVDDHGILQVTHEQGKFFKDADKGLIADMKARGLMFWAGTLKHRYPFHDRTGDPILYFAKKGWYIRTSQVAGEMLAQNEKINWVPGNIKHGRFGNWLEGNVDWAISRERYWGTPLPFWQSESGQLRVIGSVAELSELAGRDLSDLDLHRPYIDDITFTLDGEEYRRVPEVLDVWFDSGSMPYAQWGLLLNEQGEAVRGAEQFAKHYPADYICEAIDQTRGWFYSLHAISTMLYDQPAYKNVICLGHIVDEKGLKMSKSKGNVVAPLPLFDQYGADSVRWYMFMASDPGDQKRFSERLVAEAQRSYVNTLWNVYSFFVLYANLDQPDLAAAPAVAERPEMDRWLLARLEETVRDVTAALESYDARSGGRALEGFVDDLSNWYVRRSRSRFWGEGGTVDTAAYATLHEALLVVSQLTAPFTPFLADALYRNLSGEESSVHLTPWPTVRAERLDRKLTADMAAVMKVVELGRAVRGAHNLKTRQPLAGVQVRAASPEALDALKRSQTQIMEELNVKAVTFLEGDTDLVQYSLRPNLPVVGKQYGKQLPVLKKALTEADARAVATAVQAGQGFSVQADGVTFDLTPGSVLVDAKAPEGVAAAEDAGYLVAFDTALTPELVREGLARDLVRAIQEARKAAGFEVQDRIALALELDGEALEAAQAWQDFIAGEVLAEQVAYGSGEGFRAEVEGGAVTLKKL

Which Ki (wt-ALHH DrIleRS2; amino acid activation assay, ATP as variable substrate, average ± SD of three independent experiments, read-out: KI (MUP)ATP) does the source give for `C/C(=C\C(=O)OCCCCCCCCC(=O)O)C[C@@H]1OC[C@H](C[C@@H]2O[C@H]2[C@@H](C)[C@H](C)O)[C@@H](O)[C@H]1O` [mupirocin] here?
Its Ki is 7700 ± 400 µM.

And the Ki (wt-ALHH DrIleRS2; amino acid activation step, ATP/PPi exchange assay, Ile varied, ATP saturating, average ± SD of three independent experiments, read-out: KI (MUP)Ile)?
Its Ki is 6600 ± 400 µM.

What about the mode of inhibition (wt-ALHH DrIleRS2; amino acid activation step, with respect to both Ile and ATP) of the same molecule?
Its mode of inhibition is “classical competitive inhibition”.

And the initial velocity vo (wt-ALHH DrIleRS2; c(mupirocin) 2.0 mM, c(Ile) 10.0 μM)?
Its initial velocity vo is 0.0067 mM/min and 0.00769 mM/min and 0.00782 mM/min.

What about the initial velocity vo (wt-ALHH DrIleRS2; c(mupirocin) 2.0 mM, c(Ile) 20.0 μM) of the same molecule?
Its initial velocity vo is 0.01324 mM/min and 0.01288 mM/min and 0.01298 mM/min.

What about the initial velocity vo (wt-ALHH DrIleRS2; c(mupirocin) 2.0 mM, c(Ile) 40.0 μM) of the same molecule?
The initial velocity vo was 0.02028 mM/min and 0.02243 mM/min and 0.02046 mM/min.

And the initial velocity vo (wt-ALHH DrIleRS2; c(mupirocin) 5.0 mM, c(ATP) 1.0 mM)?
The initial velocity vo was 0.03528 mM/min and 0.03566 mM/min and 0.03641 mM/min.

And the initial velocity vo (wt-ALHH DrIleRS2; c(mupirocin) 5.0 mM, c(ATP) 2.5 mM)?
The initial velocity vo was 0.04751 mM/min and 0.04951 mM/min and 0.05105 mM/min.

And the initial velocity vo (wt-ALHH DrIleRS2; c(mupirocin) 5.0 mM, c(ATP) 5.0 mM)?
Its initial velocity vo is 0.05659 mM/min and 0.05544 mM/min and 0.05848 mM/min.

And the initial velocity vo (wt-ALHH DrIleRS2; c(mupirocin) 5.0 mM, c(ATP) 10.0 mM)?
The initial velocity vo was 0.05987 mM/min and 0.05899 mM/min and 0.06477 mM/min.

What about the initial velocity vo (wt-ALHH DrIleRS2; c(mupirocin) 5.0 mM, c(Ile) 10.0 μM) of the same molecule?
Its initial velocity vo is 0.00848 mM/min and 0.00805 mM/min and 0.00714 mM/min.

What about the initial velocity vo (wt-ALHH DrIleRS2; c(mupirocin) 5.0 mM, c(Ile) 20.0 μM) of the same molecule?
Its initial velocity vo is 0.01178 mM/min and 0.01222 mM/min and 0.01149 mM/min.

What about the initial velocity vo (wt-ALHH DrIleRS2; c(mupirocin) 5.0 mM, c(Ile) 40.0 μM) of the same molecule?
The initial velocity vo was 0.01921 mM/min and 0.02111 mM/min and 0.01863 mM/min.

What about the initial velocity vo (wt-ALHH DrIleRS2; c(mupirocin) 10.0 mM, c(ATP) 1.0 mM) of the same molecule?
The initial velocity vo was 0.02957 mM/min and 0.02811 mM/min and 0.02952 mM/min.

And the initial velocity vo (wt-ALHH DrIleRS2; c(mupirocin) 10.0 mM, c(ATP) 2.5 mM)?
Its initial velocity vo is 0.04461 mM/min and 0.04583 mM/min and 0.04572 mM/min.

And the initial velocity vo (wt-ALHH DrIleRS2; c(mupirocin) 10.0 mM, c(ATP) 5.0 mM)?
Its initial velocity vo is 0.05427 mM/min and 0.05634 mM/min and 0.05619 mM/min.

And the initial velocity vo (wt-ALHH DrIleRS2; c(mupirocin) 10.0 mM, c(ATP) 10.0 mM)?
The initial velocity vo was 0.06096 mM/min and 0.06226 mM/min and 0.06179 mM/min.

And the initial velocity vo (wt-ALHH DrIleRS2; c(mupirocin) 10.0 mM, c(Ile) 10.0 μM)?
Its initial velocity vo is 0.00446 mM/min and 0.00532 mM/min and 0.0043 mM/min.

What about the initial velocity vo (wt-ALHH DrIleRS2; c(mupirocin) 10.0 mM, c(Ile) 20.0 μM) of the same molecule?
The initial velocity vo was 0.0078 mM/min and 0.01029 mM/min and 0.0074 mM/min.

What about the initial velocity vo (wt-ALHH DrIleRS2; c(mupirocin) 10.0 mM, c(Ile) 40.0 μM) of the same molecule?
Its initial velocity vo is 0.01449 mM/min and 0.016 mM/min and 0.01446 mM/min.

What about the initial velocity vo (wt-ALHH DrIleRS2; c(mupirocin) 10.0 mM, c(Ile) 80.0 μM) of the same molecule?
The initial velocity vo was 0.02234 mM/min and 0.02409 mM/min and 0.02227 mM/min.

What about the initial velocity vo (wt-ALHH DrIleRS2; c(mupirocin) 15.0 mM, c(ATP) 1.0 mM) of the same molecule?
Its initial velocity vo is 0.02381 mM/min and 0.02402 mM/min and 0.0242 mM/min.

What about the initial velocity vo (wt-ALHH DrIleRS2; c(mupirocin) 15.0 mM, c(ATP) 2.5 mM) of the same molecule?
Its initial velocity vo is 0.03988 mM/min and 0.03998 mM/min and 0.04105 mM/min.

And the initial velocity vo (wt-ALHH DrIleRS2; c(mupirocin) 15.0 mM, c(ATP) 5.0 mM)?
The initial velocity vo was 0.05025 mM/min and 0.05034 mM/min and 0.05209 mM/min.

And the initial velocity vo (wt-ALHH DrIleRS2; c(mupirocin) 15.0 mM, c(ATP) 10.0 mM)?
The initial velocity vo was 0.0561 mM/min and 0.05663 mM/min and 0.05737 mM/min.

And the initial velocity vo (wt-ALHH DrIleRS2; c(mupirocin) 20.0 mM, c(ATP) 1.0 mM)?
Its initial velocity vo is 0.02027 mM/min and 0.02047 mM/min and 0.01966 mM/min.

What about the initial velocity vo (wt-ALHH DrIleRS2; c(mupirocin) 20.0 mM, c(ATP) 2.5 mM) of the same molecule?
Its initial velocity vo is 0.03606 mM/min and 0.03686 mM/min and 0.03693 mM/min.

And the initial velocity vo (wt-ALHH DrIleRS2; c(mupirocin) 20.0 mM, c(ATP) 5.0 mM)?
Its initial velocity vo is 0.04674 mM/min and 0.0476 mM/min and 0.04884 mM/min.

And the initial velocity vo (wt-ALHH DrIleRS2; c(mupirocin) 20.0 mM, c(ATP) 10.0 mM)?
The initial velocity vo was 0.05461 mM/min and 0.05589 mM/min and 0.05542 mM/min.

What about the initial velocity vo (wt-ALHH DrIleRS2; c(mupirocin) 25 mM, c(ATP) 1.0 mM) of the same molecule?
The initial velocity vo was 0.01716 mM/min and 0.01763 mM/min and 0.01741 mM/min.

And the initial velocity vo (wt-ALHH DrIleRS2; c(mupirocin) 25 mM, c(ATP) 2.5 mM)?
Its initial velocity vo is 0.03106 mM/min and 0.033 mM/min and 0.02877 mM/min.

What about the initial velocity vo (wt-ALHH DrIleRS2; c(mupirocin) 25 mM, c(ATP) 5.0 mM) of the same molecule?
The initial velocity vo was 0.0424 mM/min and 0.04408 mM/min and 0.04201 mM/min.

And the initial velocity vo (wt-ALHH DrIleRS2; c(mupirocin) 25 mM, c(ATP) 10.0 mM)?
Its initial velocity vo is 0.05204 mM/min and 0.0507 mM/min and 0.05392 mM/min.

What about the initial velocity vo (wt-ALHH DrIleRS2; c(mupirocin) 25.0 mM, c(Ile) 10.0 μM) of the same molecule?
The initial velocity vo was 0.003 mM/min and 0.0032 mM/min and 0.00312 mM/min.

And the initial velocity vo (wt-ALHH DrIleRS2; c(mupirocin) 25.0 mM, c(Ile) 20.0 μM)?
Its initial velocity vo is 0.0036 mM/min and 0.0044 mM/min and 0.00399 mM/min.

And the initial velocity vo (wt-ALHH DrIleRS2; c(mupirocin) 25.0 mM, c(Ile) 40.0 μM)?
Its initial velocity vo is 0.0074 mM/min and 0.0071 mM/min and 0.00814 mM/min.

What about the initial velocity vo (wt-ALHH DrIleRS2; c(mupirocin) 25.0 mM, c(Ile) 80.0 μM) of the same molecule?
Its initial velocity vo is 0.0137 mM/min.

And the Ki (wt-ALHH DrIleRS2; mupirocin inhibition towards Ile, GraphPad Prism output, Repl1-Repl3, read-out: KI, single replicates)?
The Ki was 7220 µM and 6750 µM and 5950 µM.

And the Ki (wt-HVGH PmIleRS2; amino acid activation step, ATP/PPi exchange assay, Ile varied, read-out: KI (MUP)Ile)?
The Ki was 1.08 ± 0.06 µM.

What about the Ki (wt-HVGH PmIleRS2; mupirocin inhibition towards Ile, GraphPad Prism output, Repl1-Repl3, Table 1 footnote b gives this enzyme's values as from ref 21, read-out: KI, single replicates) of the same molecule?
Its Ki is 1.04 µM and 0.99 µM and 1.18 µM.

What about the Ki (wt-HMGH PmIleRS1) of the same molecule?
Its Ki is 0.00029 ± 2e-05 µM.

And the Ki (ScIleRS2)?
Its Ki is 15 µM.

What about the Ki (IleRS1) of the same molecule?
Its Ki is “low nanomolar range”.
